Among the data in PubChem BioAssay (NCI) are GI50 and TGI values, retold here.

Molecules are shown by their SMILES.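 Interpolation was linear, between the two tested concentrations surrounding the appropriate level; five concentrations were tested over 48 hours in 96-well plates. The concentration for 50% growth inhibition is given as GI50. TGI: concentration producing complete growth inhibition.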 A value given as a limit tells only on which side of the number the result lay.

Some test systems named below: BT-549 breast; UACC-62 melanoma; SF-539 CNS; K-562 leukemia; MDA-MB-231 breast; IGROV1 ovarian; SF-295 CNS; HL-60(TB) leukemia; SR leukemia; UACC-257 melanoma.
Assay in all cases: growth of human tumour cells (NCI), 48 h

On to `N#C/C(=C\c1ccc(Br)cc1)n1nnc2cc(F)c(F)cc21`, for which the GI50 in the test on BT-549 breast was 1.74 µM; in the test with UACC-62 melanoma, 1.46 µM; with SF-539 CNS, 1.86 µM; in the test on K-562 leukemia it was 2 µM; in the test on MDA-MB-231 breast, 2.23 µM; in the test with IGROV1 ovarian, 1.74 µM. The figures for the GI50 with SF-295 CNS and in the test with HL-60(TB) leukemia were 1.58 µM and 2.07 µM, respectively. Also, the TGI in the test on BT-549 breast was 4.51 µM; in the test with UACC-62 melanoma it was 3 µM; in the test on SF-539 CNS it was 3.39 µM; with K-562 leukemia, more than 100 µM; in the test on MDA-MB-231 breast, 5.92 µM; in the test with IGROV1 ovarian, 3.77 µM. The figures for the TGI in the test with SF-295 CNS and in the test with HL-60(TB) leukemia were 3.27 µM and 4.96 µM, respectively.
Turning to `Cc1cccc(Oc2ccc(Nc3ncnc4ccc(NC(=O)CN5CCN(C)CC5)cc34)cc2Cl)c1`, the GI50 is 1.45 µM in the test with BT-549 breast; 1.84 µM in the test on UACC-62 melanoma; 1.73 µM in the test on SF-539 CNS; 1.61 µM in the test on K-562 leukemia; 1.72 µM with SR leukemia; 1.66 µM in the test on MDA-MB-231 breast. In addition, the results for the GI50 in the test on IGROV1 ovarian, in the test on SF-295 CNS and in the test with UACC-257 melanoma were 0.673 µM, 1.83 µM and 1.9 µM, respectively. The TGI with BT-549 breast was 2.81 µM; with UACC-62 melanoma, 3.56 µM; in the test on SF-539 CNS, 3.19 µM; in the test with K-562 leukemia, 4.33 µM; with SR leukemia, 5.32 µM; in the test on MDA-MB-231 breast, 3.17 µM. Further, the TGI with IGROV1 ovarian amounted to 2.38 µM; in the test on SF-295 CNS it was 3.39 µM; in the test with UACC-257 melanoma, 3.85 µM.
Take `C/C=C/C/C=C/CCC(=O)C1OC1C(N)=O` (stereo not drawn): the TGI with BT-549 breast worked out at 24.6 µM; in the test with UACC-62 melanoma, 29.3 µM; with SF-539 CNS, 30.6 µM; with K-562 leukemia, 36.8 µM; with SR leukemia, 50.5 µM; in the test on MDA-MB-231 breast, 31.1 µM. Also, the values for the TGI with IGROV1 ovarian, in the test on SF-295 CNS and in the test with UACC-257 melanoma were 31.8 µM, 30 µM and 31.1 µM, respectively.
As to `CC(=O)NC(Cc1c[nH]c2ccccc12)C(=O)O` (stereo not drawn), the TGI with BT-549 breast, in the test on UACC-62 melanoma, in the test with K-562 leukemia, in the test with SR leukemia, with MDA-MB-231 breast and with IGROV1 ovarian was more than 100 µM each time. In addition, the TGI with SF-295 CNS, in the test on UACC-257 melanoma and with HL-60(TB) leukemia was more than 100 µM each time.
With `C[C@]12CC[C@@H]3c4ccc(OCC(=O)O)cc4CC[C@H]3[C@@H]1CCC2=O`, the TGI in the test with BT-549 breast, in the test on UACC-62 melanoma, with SF-539 CNS, with SR leukemia, with MDA-MB-231 breast and in the test with IGROV1 ovarian was more than 100 µM each time. For the same compound, the figures for the TGI in the test on SF-295 CNS, in the test with UACC-257 melanoma and with HL-60(TB) leukemia were more than 100 µM, more than 100 µM and 0.317 µM, respectively.
In the case of `C=C1C(=O)O[C@H]2[C@H]1CC/C(Cn1cc(Cn3ccc4cc(Cl)ccc43)nn1)=C\CC[C@@]1(C)O[C@@H]21`, the GI50 with BT-549 breast was 1.61 µM; in the test on UACC-62 melanoma, 1.41 µM; in the test with SF-539 CNS, 1.57 µM; in the test with K-562 leukemia, 0.649 µM; in the test with SR leukemia, 0.279 µM; in the test with MDA-MB-231 breast, 1.36 µM. In addition, the GI50 in the test with IGROV1 ovarian is 1.42 µM; in the test on SF-295 CNS, 3.98 µM; in the test on UACC-257 melanoma it was 1.7 µM. The TGI in the test on BT-549 breast was 3.3 µM; in the test with UACC-62 melanoma, 2.78 µM; in the test on SF-539 CNS, 2.97 µM; in the test with K-562 leukemia it was 3.1 µM; in the test with SR leukemia, 1.25 µM; in the test with MDA-MB-231 breast, 2.82 µM. The TGI with IGROV1 ovarian is 2.9 µM; with SF-295 CNS, 17 µM; in the test with UACC-257 melanoma it was 3.61 µM.
Turning to `CCC(=O)Nc1ccc2c(c1)CN1C(=O)c3ccccc3C1=N2`, the GI50 in the test with BT-549 breast, in the test on UACC-62 melanoma, in the test on SF-539 CNS, with SR leukemia, in the test with MDA-MB-231 breast and with IGROV1 ovarian was more than 100 µM throughout. In addition, the GI50 with SF-295 CNS, with UACC-257 melanoma and with HL-60(TB) leukemia was more than 100 µM each time. Also, the TGI with BT-549 breast, with UACC-62 melanoma, with SF-539 CNS, in the test on SR leukemia, with MDA-MB-231 breast and in the test on IGROV1 ovarian was more than 100 µM throughout. Further, the TGI with SF-295 CNS, in the test on UACC-257 melanoma and in the test with HL-60(TB) leukemia was more than 100 µM each time.
On to `CCSc1nc(=S)[nH]c2[nH]ncc12`, for which the GI50 was more than 100 µM in the test with BT-549 breast; 66.3 µM in the test on UACC-62 melanoma; 45.1 µM in the test on SF-539 CNS; more than 100 µM with K-562 leukemia; more than 100 µM with MDA-MB-231 breast; 70.3 µM in the test with IGROV1 ovarian. Also, the GI50 in the test on SF-295 CNS, in the test on UACC-257 melanoma and in the test on HL-60(TB) leukemia was more than 100 µM in each case. In addition, the TGI in the test on BT-549 breast, in the test with UACC-62 melanoma, in the test with SF-539 CNS, with K-562 leukemia, with MDA-MB-231 breast and in the test on IGROV1 ovarian was more than 100 µM throughout. For the same compound, the TGI in the test on SF-295 CNS, with UACC-257 melanoma and with HL-60(TB) leukemia was more than 100 µM each time.
As to `COc1cc(C(=O)O)ccc1NC(=O)[C@@H]1N[C@@H](CC(C)(C)C)[C@](C#N)(c2ccc(Cl)cc2F)[C@H]1c1cccc(Cl)c1F`, the GI50 is 2.76 µM in the test on BT-549 breast; 0.0909 µM in the test on UACC-62 melanoma; 3.63 µM in the test on SF-539 CNS; 4.15 µM in the test on K-562 leukemia; 6.58 µM in the test on MDA-MB-231 breast; 2.21 µM with IGROV1 ovarian. Further, the GI50 is 2.78 µM in the test with SF-295 CNS, 0.145 µM in the test on UACC-257 melanoma and 2.28 µM with HL-60(TB) leukemia. The TGI with BT-549 breast was 7.11 µM; with UACC-62 melanoma, 2.13 µM; in the test on SF-539 CNS it was 11.5 µM; in the test on K-562 leukemia it was more than 100 µM; in the test on MDA-MB-231 breast it was more than 100 µM; with IGROV1 ovarian, 17.3 µM. For the same compound, the values for the TGI with SF-295 CNS, in the test with UACC-257 melanoma and with HL-60(TB) leukemia were 8.64 µM, 1.83 µM and 6.71 µM, respectively.
